Literature values, collected in patent US20080027034A1, “Ciclesonide and Syk Inhibitor Combination and Method of Use Thereof” (priority 2004, published 2008).

What was measured:
[1] = not given; remark: listed apart in the source
[2] = compared with budesonide

metabolism by liver oxidases (liver oxidases): very high | concentration of the drug in the lungs (lungs): high | absorption after oral administration (oral administration): only moderately absorbed | plasma half-life (plasma): low
SMILES: CC(C)C(=O)OCC(=O)[C@@]12O[C@H](C3CCCCC3)O[C@@H]1C[C@H]1[C@@H]3CCC4=CC(=O)C=C[C@]4(C)[C@H]3[C@@H](O)C[C@@]12C [Ciclesonide, [11β,16α(R)]-16,17-[(Cyclohexylmethylen)bis(oxy)]-11-hydroxy-21-(2-methyl-1-oxoprop-oxy)pregna-1,4-dien-3,20-dione]
systemic activity relative to budesonide ([1]; compared with budesonide): three times lower | systemic activity ([1]; in vivo): low | anti-inflammatory activity relative to budesonide [2]: higher
